# Laboratory results published in patent US20100178243A1, “Novel method of stabilizing diagnostic and therapeutic compounds in a cationic carrier system” (MediGene AG, priority 2002, published 2010).
# Test system: A-375 Melanoma
# Experiment: Therapeutic efficacy of LipoCam in A-375 melanoma of nude mice
# Assay type: in vivo
# Conditions: iv, three times a week for three weeks, equitoxic doses; s.c. A-375 tumors; FIG. 11
# Method: NMRI-nude mice were purchased from Elevage Janvier and housed in isolated ventilated cages under save environmental conditions (SPF facility, 22° C., 30-70% humidity, 12 h light/dark cycle) with food and water ad libitum. Experimental design was reviewed and approved by local government.
# Tumor cells (A-375 human melanoma cell line, ATCC Nr.: CRL-1619) were grown as described in the data sheet supplied by ATCC. Tumor cells (5×10^6 in PBS) were inoculated s.c. in the right dorsal flank of mice in a volume of 50 μl on day 0.
# Mice were assigned to the experimental groups (8 animals per cage), housed and handled (including monitoring of the body weight gain) at least five days before tumor inoculation (=day −6 to 0). […] Equitoxic doses of the compounds were determined in separate experiments, where toxicity was evaluated based on haematological parameters, body weight and animal clinical observations. […]
# Animals were clinically monitored during the whole experiment and for at least one week after treatment was finished. […] The tumor dimensions were measured by calliper and the tumor size was calculated according to the following formula: V=πLW^2/6 (L=greatest length, W=width of perpendicular axis). […] The number of red and white blood cells and platelets were determined using an automated cell counter (Abbott Cell Dyn 3500).
smiles,measurement,value
CC[C@@](O)(C(=O)[O-])c1cc2n(c(=O)c1CO)Cc1cc3ccccc3nc1-2.[Na+] [CPT-Na-Carboxylate],anti-tumor effect (in words),only a retardation as compared to the control group
